Test results: ChEMBL document CHEMBL5634121, “Discovery of novel G9a/GLP covalent inhibitors for the treatment of triple-negative breast cancer” (Eur J Med Chem, 2023)
The source made the active and inactive calls. The calls are words filed in the database; no cut-off is given here.

Assays:
[1] = molecular target: T1, Histone-lysine N-methyltransferase EHMT2 (Homo sapiens) (UniProt Q96KQ7); assay: Inhibition of G9a (unknown origin)
T1 sequence (whole entry): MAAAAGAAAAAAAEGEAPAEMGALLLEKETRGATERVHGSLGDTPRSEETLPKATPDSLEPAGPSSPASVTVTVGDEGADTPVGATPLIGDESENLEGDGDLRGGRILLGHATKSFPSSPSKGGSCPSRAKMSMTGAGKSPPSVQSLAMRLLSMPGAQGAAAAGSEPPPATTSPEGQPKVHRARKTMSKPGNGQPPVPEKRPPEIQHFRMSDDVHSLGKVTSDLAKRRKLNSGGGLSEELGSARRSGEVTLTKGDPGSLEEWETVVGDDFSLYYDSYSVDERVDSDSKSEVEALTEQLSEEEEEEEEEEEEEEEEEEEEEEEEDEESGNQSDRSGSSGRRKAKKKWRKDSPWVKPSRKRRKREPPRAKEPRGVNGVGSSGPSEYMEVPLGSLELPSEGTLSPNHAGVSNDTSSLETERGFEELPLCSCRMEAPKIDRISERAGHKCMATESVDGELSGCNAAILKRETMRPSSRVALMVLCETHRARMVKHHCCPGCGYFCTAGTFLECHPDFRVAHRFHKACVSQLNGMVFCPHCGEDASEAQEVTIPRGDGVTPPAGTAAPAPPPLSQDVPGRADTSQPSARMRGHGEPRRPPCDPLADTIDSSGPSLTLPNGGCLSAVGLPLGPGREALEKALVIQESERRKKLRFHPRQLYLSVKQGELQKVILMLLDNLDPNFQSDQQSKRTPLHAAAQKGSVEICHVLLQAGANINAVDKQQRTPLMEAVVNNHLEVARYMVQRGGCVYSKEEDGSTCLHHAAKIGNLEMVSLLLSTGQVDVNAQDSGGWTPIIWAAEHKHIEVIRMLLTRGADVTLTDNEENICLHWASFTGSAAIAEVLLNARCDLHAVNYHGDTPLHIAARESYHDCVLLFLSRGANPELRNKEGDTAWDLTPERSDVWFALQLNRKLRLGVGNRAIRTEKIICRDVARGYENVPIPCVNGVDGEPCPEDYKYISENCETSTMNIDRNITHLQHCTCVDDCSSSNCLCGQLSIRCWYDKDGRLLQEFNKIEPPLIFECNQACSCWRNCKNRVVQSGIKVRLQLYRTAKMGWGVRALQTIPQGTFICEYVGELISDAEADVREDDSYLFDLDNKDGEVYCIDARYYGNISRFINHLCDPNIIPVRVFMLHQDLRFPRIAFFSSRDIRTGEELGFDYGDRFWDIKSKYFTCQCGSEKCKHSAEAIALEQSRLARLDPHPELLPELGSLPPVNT

MDA-MB-231 [2] = assay: Induction of apoptosis in human MDA-MB-231 cells assessed as viable cells at 20 uM incubated for 72 hrs by Annexin V and PI staining based flow cytometry analysis (reference value: 98.31 %); assay type: functional; settings: read-out: Activity
MDA-MB-231 [3] = assay: Induction of apoptosis in human MDA-MB-231 cells assessed as early apoptotic cells at 20 uM incubated for 72 hrs by Annexin V and PI staining based flow cytometry analysis (reference value: 0.92 %); assay type: functional
MDA-MB-231 [4] = assay: Induction of apoptosis in human MDA-MB-231 cells assessed as late apoptotic cells at 20 uM incubated for 72 hrs by Annexin V and PI staining based flow cytometry analysis (reference value: 0.45 %); assay type: functional
MDA-MB-231 [5] = assay: Induction of apoptosis in human MDA-MB-231 cells assessed as necrotic cells at 20 uM incubated for 72 hrs by Annexin V and PI staining based flow cytometry analysis (reference value: 0.32 %); assay type: functional
[6] = molecular target: T2, Histone-lysine N-methyltransferase EHMT1/EHMT2 (Homo sapiens) (UniProt Q9H9B1+Q96KQ7); assay: Inhibition of G9a/GLP in human MDA-MB-231 cells assessed as reduction in H3K9 dimethylation at 20 uM incubated for 3 days by Western blotting analysis; assay type: cell-based; settings: time 3.0 day
MDA-MB-231 [7] = assay: Antiproliferative activity against human MDA-MB-231 cells assessed as cell growth inhibition at 20 uM incubated for 1 day followed by compound washout and measured after 1 to 4 days; assay type: functional, cell-based
MDA-MB-231 [8] = assay: Antiproliferative activity against human MDA-MB-231 cells incubated for 3 to 5 days by MTT assay; assay type: functional, cell-based
4T1 = assay: Antiproliferative activity against mouse 4T1 cells incubated for 3 to 5 days by MTT assay; assay type: functional, cell-based
[9] = molecular target: T1, Histone-lysine N-methyltransferase EHMT2 (Homo sapiens); assay: Inhibition of G9a (unknown origin) at 1 uM by AlphaLISA immunodetection assay relative to control
MDA-MB-231 [10] = assay: Antiproliferative activity against human MDA-MB-231 cells after 5 days by MTT assay; assay type: functional, cell-based; settings: MDA-MB-231, 120 h
MDA-MB-231 [11] = assay: Inhibition of colony formation in human MDA-MB-231 cells at 1 to 10 uM refreshed every 4 days for 12 days by crystal violet staining based assay; assay type: functional, cell-based; settings: dose 1-10 µM, time 12.0 day
[12] = molecular target: T2, Histone-lysine N-methyltransferase EHMT1/EHMT2 (Homo sapiens); assay: Inhibition of G9a/GLP in human MDA-MB-231 cells assessed as reduction in H3K9 dimethylation incubated for 3 days by Western blotting analysis; assay type: cell-based; settings: dose 2.5-20 µM, time 3.0 day
[13] = molecular target: T2, Histone-lysine N-methyltransferase EHMT1/EHMT2 (Homo sapiens); assay: Inhibition of G9a/GLP in human MDA-MB-231 cells assessed as reduction in H3K9 dimethylation at 20 uM incubated for 1 day followed by compound washout and measured after 1 to 4 days; assay type: cell-based
[14] = Cytotoxicity against human L02 cells assessed as reduction in cell viability incubated for 2 days by MTT assay; assay type: toxicity, cell-based
[15] = molecular target: T3, Histone-lysine N-methyltransferase EHMT1 (Homo sapiens) (UniProt Q9H9B1); assay: Inhibition of GLP (unknown origin) at 1 uM
T3 sequence (whole entry): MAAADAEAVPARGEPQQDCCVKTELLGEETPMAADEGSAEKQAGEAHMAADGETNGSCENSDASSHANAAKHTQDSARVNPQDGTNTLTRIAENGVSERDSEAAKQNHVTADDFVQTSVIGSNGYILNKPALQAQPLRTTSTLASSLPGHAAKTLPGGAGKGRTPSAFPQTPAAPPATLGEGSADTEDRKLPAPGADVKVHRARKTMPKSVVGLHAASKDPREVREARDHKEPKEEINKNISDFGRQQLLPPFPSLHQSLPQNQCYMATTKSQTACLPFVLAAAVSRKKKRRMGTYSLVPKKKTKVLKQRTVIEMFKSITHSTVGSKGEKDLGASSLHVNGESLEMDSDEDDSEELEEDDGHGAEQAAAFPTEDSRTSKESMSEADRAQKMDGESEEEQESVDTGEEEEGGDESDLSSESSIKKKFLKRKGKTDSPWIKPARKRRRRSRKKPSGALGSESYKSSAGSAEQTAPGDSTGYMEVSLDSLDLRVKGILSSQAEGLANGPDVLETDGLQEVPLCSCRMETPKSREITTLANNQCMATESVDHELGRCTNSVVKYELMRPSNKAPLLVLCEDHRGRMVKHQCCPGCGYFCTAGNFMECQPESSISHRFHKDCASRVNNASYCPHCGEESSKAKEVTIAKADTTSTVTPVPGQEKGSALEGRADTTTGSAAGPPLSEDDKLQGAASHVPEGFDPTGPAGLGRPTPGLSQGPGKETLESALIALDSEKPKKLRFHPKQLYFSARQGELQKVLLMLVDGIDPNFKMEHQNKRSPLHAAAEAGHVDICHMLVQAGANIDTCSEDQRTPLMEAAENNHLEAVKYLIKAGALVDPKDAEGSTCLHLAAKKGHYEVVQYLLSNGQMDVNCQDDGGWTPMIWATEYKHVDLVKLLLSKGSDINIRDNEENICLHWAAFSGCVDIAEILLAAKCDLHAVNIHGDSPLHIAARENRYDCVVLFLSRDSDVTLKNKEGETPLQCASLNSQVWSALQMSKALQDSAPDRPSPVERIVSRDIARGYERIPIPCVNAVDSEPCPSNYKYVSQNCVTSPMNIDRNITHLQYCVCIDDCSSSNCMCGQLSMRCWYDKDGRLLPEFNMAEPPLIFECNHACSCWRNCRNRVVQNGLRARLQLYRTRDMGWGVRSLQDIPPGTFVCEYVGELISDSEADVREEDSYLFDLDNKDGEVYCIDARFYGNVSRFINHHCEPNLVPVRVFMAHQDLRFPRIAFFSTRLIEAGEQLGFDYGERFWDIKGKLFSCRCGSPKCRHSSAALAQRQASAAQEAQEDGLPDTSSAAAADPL

[16] = Mus musculus, 4T1, read-out: IC50

SMILES	IC50 (MDA-MB-231 [8])	IC50 (4T1; [16])	inhibition [9]	further results
CCC(=O)Nc1cccc(-c2nc(NC3CCN(C)CC3)c3cc(OC)c(OC)cc3n2)c1				inhibition [1]: inactive; viability at 20 µM (MDA-MB-231 [2]): 82.7%; Activity (MDA-MB-231 [3]): 8.69%; Activity (MDA-MB-231 [4]): 7.29%; Activity (MDA-MB-231 [5]): 1.32%; inhibition [6]: Active; Activity (MDA-MB-231 [7]): inactive
C=CC(=O)N1CCC=C(c2nc(NC3CCN(Cc4ccccc4)CC3)c3cc(OC)c(OC)cc3n2)C1	10.5 µM	28.6 µM		
C=CC(=O)N1CCC=C(c2nc(NC3CCN(C(C)C)CC3)c3cc(OC)c(OC)cc3n2)C1	13.4 µM	11.2 µM	7%	
COc1cc2c(NC3CCN(C(C)C)CC3)nc(N3CCC(F)(F)CC3)nc2cc1OCCCN1CCCC1	0.99 µM			IC50 (4T1; 4t1): 1.55 µM; IC50 (MDA-MB-231 [10]): 1 µM; inhibition (MDA-MB-231 [11]): Active; viability at 20 µM (MDA-MB-231 [2]): 7.16%; Activity (MDA-MB-231 [3]): 72.11%; Activity (MDA-MB-231 [4]): 16.69%; Activity (MDA-MB-231 [5]): 4.04%; inhibition [12]: Dose-Dependent Effect; Activity (MDA-MB-231 [7]): inactive; inhibition [13]: inactive; IC50 at 2 days [14]: 6.99 µM
CCC(=O)N1CCC=C(c2nc(NC3CCN(C)CC3)c3cc(OC)c(OC)cc3n2)C1				inhibition [1]: inactive
C=CC(=O)NC/C=C/c1nc(NC2CCN(Cc3ccccc3)CC2)c2cc(OC)c(OC)cc2n1	2.07 µM	17.6 µM	60%	
C=CC(=O)N1CC=C(c2nc(NC3CCN(Cc4ccccc4)CC3)c3cc(OC)c(OC)cc3n2)C1	1.6 µM	8.96 µM	38%	
C=CC(=O)Nc1ccc(C)c(-c2nc(NC3CCN(C(C)C)CC3)c3cc(OC)c(OC)cc3n2)c1	18.3 µM	25.6 µM		
COc1cc2nc(N3CCCN(C)CC3)nc(NC3CCN(Cc4ccccc4)CC3)c2cc1OC				IC50 at 2 days [14]: 4.28 µM
CCC(=O)N1CC=C(c2nc(NC3CCN(C)CC3)c3cc(OC)c(OC)cc3n2)C1				inhibition [1]: inactive
C=CC(=O)N1CC=C(c2nc(NC3CCN(C)CC3)c3cc(OC)c(OC)cc3n2)C1	0.89 µM	10.4 µM	98%	inhibition [15]: Active
C=CC(=O)N1CCC=C(c2nc(NC3CCN(C)CC3)c3cc(OC)c(OC)cc3n2)C1	3.52 µM	8.94 µM	98%	inhibition [15]: Active
C=CC(=O)NC/C=C/c1nc(NC2CCN(C(C)C)CC2)c2cc(OC)c(OC)cc2n1	2.26 µM	> 30 µM	56%	
C=CC(=O)NC/C=C/c1nc(NC2CCN(C)CC2)c2cc(OC)c(OC)cc2n1	> 30 µM	> 30 µM		
C=CC(=O)Nc1cccc(-c2nc(NC3CCN(C(C)C)CC3)c3cc(OC)c(OC)cc3n2)c1	1.53 µM	10.4 µM	26%	
C=CC(=O)N1CC=C(c2nc(NC3CCN(C(C)C)CC3)c3cc(OC)c(OC)cc3n2)C1	1.27 µM	28.1 µM	24%	
